Data published in article PMC10608790, “Structural Diversity and Biological Activity of Cyanopeptolins Produced by Nostoc edaphicum CCNP1411” (Marine Drugs, 2023).

Legend:
[1] = test system: human cervical cancer (HeLa) cell line; assay: MTT assay on HeLa cells; format: cell-based; conditions: 200 µg × mL−1, 24 h
Method: The cytotoxic activity of the selected 17 CPs against the HeLa cervical cancer cell line (Merck KGaA, Darmstadt, Germany) was assessed with the MTT (3-(4,5-dimethylthiazole-2-yl)-2,5-diphenyltetrazolium bromide) assay according to Felczykowska et al.. HeLa cells were seeded at 4 × 10^3 cells per well in DMEM medium (Merck KGaA) supplemented with 10% (v/v) fetal bovine serum (Merck KGaA) and penicillin-streptomycin solution (1% v/v, stock solution 50 u and 0.05 mg × mL^−1, respectively; Merck KGaA). Cells were allowed to attach overnight, and then the tested compounds prepared in 1% DMSO were added. After incubation (24 h), 25 µL of MTT solution (4 mg × mL^−1; Merck KGaA) were added and then the samples were incubated for another 4 h. The formazan crystals were dissolved with 100% DMSO and absorbance was measured with Spectramax i3 (Molecular Deviecs, LLC San Jose, CA, USA). The reduction in cell viability greater than 60% was considered as significant.

[2] = biological target: chymotrypsin (Bos taurus, UniProt P00766); set-up: method as in PMID 29949853; conditions: results published earlier; read-out: CHY (chymotrypsin) IC50, value marked *; cited from earlier work
[3] = biological target: elastase (Sus scrofa, UniProt P00772); assay: Elastase inhibition assay; format: biochemical; conditions: class symbol instead of IC50
Method: (§1) The enzyme inhibitory activity of cyanopeptolins was assayed against trypsin [108], chymotrypsin, thrombin [109], and elastase as described before. In brief, the samples were prepared and serially diluted (1 mg, 1:1—1:10,000 times) in 1% DMSO; the standard inhibitors: aprotinin (trypsin and chymotrypsin) AEBSF 4-(2-aminoethyl)benzenesulfonyl fluoride hydrochloride (thrombin), elastatinal (elastase) (all from Sigma Aldrich; St. Louis, MO, USA) were also prepared in 1% DMSO. DMSO (1%) without the addition of the enzyme served as a negative control. All tests were carried out in triplicates. After the incubation of the assay mixtures, the absorbances were measured at 405 nm (Varioskan Flash Thermo Fisher Scientific OY, Vantaa, Finland). The reduction in enzyme activity greater than 50% was considered as significant.

[4] = biological target: T1, trypsin (Bos taurus, UniProt P00760); assay: Trypsin inhibition assay; format: biochemical; conditions: class symbol instead of IC50
T1 sequence (P00760 24-246): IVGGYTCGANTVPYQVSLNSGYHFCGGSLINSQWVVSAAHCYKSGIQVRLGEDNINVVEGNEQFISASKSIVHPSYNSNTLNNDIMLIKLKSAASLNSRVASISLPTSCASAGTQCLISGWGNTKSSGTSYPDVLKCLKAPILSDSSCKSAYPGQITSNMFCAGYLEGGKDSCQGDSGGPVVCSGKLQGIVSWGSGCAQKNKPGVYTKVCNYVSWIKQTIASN
Method: as §1

[5] = test system: chymotrypsin; assay: Chymotrypsin inhibition assay; format: biochemical; conditions: read-out: CHY (chymotrypsin) IC50
Method: as §1, with “In” for “The enzyme inhibitory activity of cyanopeptolins was assayed against trypsin [108], chymotrypsin, thrombin [109], and elastase as described before. In”

[6] = biological target: thrombin (Homo sapiens, UniProt P00734); assay: Thrombin inhibition assay; format: biochemical; conditions: highest concentration in the assay 45 µg × mL−1
Method: as §1

Sequence of elastase (P00772 27-266): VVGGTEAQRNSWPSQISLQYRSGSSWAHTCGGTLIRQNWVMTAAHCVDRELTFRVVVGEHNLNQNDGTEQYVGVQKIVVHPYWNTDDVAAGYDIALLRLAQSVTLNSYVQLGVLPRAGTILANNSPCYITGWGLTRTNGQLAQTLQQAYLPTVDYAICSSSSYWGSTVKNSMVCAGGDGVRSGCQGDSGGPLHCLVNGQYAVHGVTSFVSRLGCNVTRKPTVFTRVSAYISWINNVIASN

In the case of `CCCC(=O)N[C@@H](CC(=O)O)C(=O)N[C@@H]1C(=O)N[C@@H](CCCNC(=N)N)C(=O)N[C@H]2CC[C@@H](O)N(C2=O)[C@@H](Cc2ccccc2)C(=O)N(C)[C@@H](Cc2ccc(O)cc2)C(=O)N[C@@H](C(C)C)C(=O)O[C@@H]1C` [CP 978, [Thr + Arg + Ahp + Phe + MeTyr + Val]Asp + BA], the “reduction in cell viability versus control” value [1] is given as 62.5% and the IC50 [2] is given as 3.8 µM.
For `CCCCCC(=O)N[C@@H](CC(=O)O)C(=O)N[C@@H]1C(=O)N[C@@H](Cc2ccccc2)C(=O)N[C@H]2CC[C@@H](O)N(C2=O)[C@@H](Cc2ccccc2)C(=O)N(C)[C@@H](Cc2ccccc2)C(=O)N[C@@H](C(C)C)C(=O)O[C@@H]1C` [CP 981, [Thr + Phe + Ahp + Phe + MePhe + Val]Asp + HA], the “E (elastase) inhibition class” value [3] was “− (not active (inhibition below 50%))”, the “TRY (trypsin) inhibition class” value [4] was “− (not active (inhibition below 50%))” and the IC50 [5] was 3.92 µM. The “TRB (thrombin) inhibition class” value [6] was “− (not active (inhibition below 50%))”.
